Measured values: article PMC8401933 (Molecules, 2021)

Experiments:
Test in all cases: KINOMEscan binding
[1] = target: T1, GAK (Homo sapiens, UniProt O14976); conditions: read-out: Percent Control
T1 construct: purchased Eurofins DiscoverX KINOMEscan

[2] = tested on: FLT3(ITD); parameters: species or system human; conditions: 10 μM
[3] = target: T2, ACVR1 (Homo sapiens, UniProt Q04771); conditions: read-out: Percent Control
T2 construct: purchased Eurofins DiscoverX KINOMEscan

[4] = target: T3, DDR2 (Homo sapiens, UniProt Q16832); conditions: read-out: Percent Control
T3 construct: purchased Eurofins DiscoverX KINOMEscan

[5] = target: T4, ROCK1 (Homo sapiens, UniProt Q13464)
T4 construct: purchased Eurofins DiscoverX KINOMEscan

[6] = target: T5, LATS2 (Homo sapiens, UniProt Q9NRM7); conditions: read-out: Percent Control
T5 construct: purchased Eurofins DiscoverX KINOMEscan

[7] = target: T6, CLK1 (Homo sapiens, UniProt P49759); conditions: read-out: Percent Control
T6 construct: purchased Eurofins DiscoverX KINOMEscan

[8] = target: T7, DLK (Homo sapiens, UniProt Q12852); conditions: read-out: Percent Control
T7 construct: purchased Eurofins DiscoverX KINOMEscan

[9] = target: T8, TGFBR1 (Homo sapiens, UniProt P36897); conditions: read-out: Percent Control
T8 construct: purchased Eurofins DiscoverX KINOMEscan

[10] = target: T9, CSNK1G2 (Homo sapiens, UniProt P78368); conditions: read-out: Percent Control
T9 construct: purchased Eurofins DiscoverX KINOMEscan

[11] = target: T10, p38-gamma (Homo sapiens, UniProt P53778); conditions: read-out: Percent Control
T10 construct: purchased Eurofins DiscoverX KINOMEscan

[12] = target: T11, FYN (Homo sapiens, UniProt P06241); conditions: read-out: Percent Control
T11 construct: purchased Eurofins DiscoverX KINOMEscan

[13] = target: T12, NEK3 (Homo sapiens, UniProt P51956); conditions: read-out: Percent Control
T12 construct: purchased Eurofins DiscoverX KINOMEscan

[14] = target: T13, JNK2 (Homo sapiens, UniProt P45984); conditions: read-out: Percent Control
T13 construct: purchased Eurofins DiscoverX KINOMEscan

[15] = target: T14, CLK3 (Homo sapiens, UniProt P49761); conditions: read-out: Percent Control
T14 construct: purchased Eurofins DiscoverX KINOMEscan

[16] = target: T15, HIPK4 (Homo sapiens, UniProt Q8NE63); conditions: read-out: Percent Control
T15 construct: purchased Eurofins DiscoverX KINOMEscan

[17] = target: T16, TAOK1 (Homo sapiens, UniProt Q7L7X3); conditions: read-out: Percent Control
T16 construct: purchased Eurofins DiscoverX KINOMEscan

[18] = target: T17, DYRK1A (Homo sapiens, UniProt Q13627); conditions: read-out: Percent Control
T17 construct: purchased Eurofins DiscoverX KINOMEscan

[19] = target: T18, PRKD1 (Homo sapiens, UniProt Q15139); conditions: read-out: Percent Control
T18 construct: purchased Eurofins DiscoverX KINOMEscan

[20] = target: T19, PRKCI (Homo sapiens, UniProt P41743); conditions: read-out: Percent Control
T19 construct: purchased Eurofins DiscoverX KINOMEscan

[21] = target: T20, KIT-autoinhibited (Homo sapiens, UniProt P10721); conditions: read-out: Percent Control
T20 construct: purchased Eurofins DiscoverX KINOMEscan

[22] = target: T21, MAP4K2 (Homo sapiens, UniProt Q12851); conditions: read-out: Percent Control
T21 construct: purchased Eurofins DiscoverX KINOMEscan

[23] = target: T22, ABL1(H396P)-phosphorylated (Homo sapiens, UniProt P00519, H396P); conditions: read-out: Percent Control
T22 construct: purchased Eurofins DiscoverX KINOMEscan

[24] = target: T23, MAP3K15 (Homo sapiens, UniProt Q6ZN16); conditions: read-out: Percent Control
T23 construct: purchased Eurofins DiscoverX KINOMEscan

[25] = target: T24, CTK (Homo sapiens, UniProt P42679); conditions: read-out: Percent Control
T24 construct: purchased Eurofins DiscoverX KINOMEscan

[26] = target: T25, DRAK2 (Homo sapiens, UniProt O94768); conditions: read-out: Percent Control
T25 construct: purchased Eurofins DiscoverX KINOMEscan

[27] = target: T26, PIM2 (Homo sapiens, UniProt Q9P1W9); conditions: read-out: Percent Control
T26 construct: purchased Eurofins DiscoverX KINOMEscan

[28] = target: T27, CAMK1G (Homo sapiens, UniProt Q96NX5); conditions: read-out: Percent Control
T27 construct: purchased Eurofins DiscoverX KINOMEscan

[29] = target: T28, EPHA6 (Homo sapiens, UniProt Q9UF33); conditions: read-out: Percent Control
T28 construct: purchased Eurofins DiscoverX KINOMEscan

[30] = target: T29, FAK (Homo sapiens, UniProt Q05397); conditions: read-out: Percent Control
T29 construct: purchased Eurofins DiscoverX KINOMEscan

[31] = target: T30, PIK4CB (Homo sapiens, UniProt Q9UBF8); conditions: read-out: Percent Control
T30 construct: purchased Eurofins DiscoverX KINOMEscan

[32] = target: T31, PLK4 (Homo sapiens, UniProt O00444); conditions: read-out: Percent Control
T31 construct: purchased Eurofins DiscoverX KINOMEscan

[33] = target: T32, PIK3CA(E545K) (Homo sapiens, UniProt P42336, E545K); conditions: read-out: Percent Control
T32 construct: purchased Eurofins DiscoverX KINOMEscan

[34] = target: T33, TYK2(JH1domain-catalytic) (Homo sapiens, UniProt P29597); conditions: read-out: Percent Control
T33 construct: TYK2(JH1domain-catalytic); purchased Eurofins DiscoverX KINOMEscan

[35] = target: T34, NEK11 (Homo sapiens, UniProt Q8NG66); conditions: read-out: Percent Control
T34 construct: purchased Eurofins DiscoverX KINOMEscan

[36] = target: T35, ASK1 (Homo sapiens, UniProt Q99683); conditions: read-out: Percent Control
T35 construct: purchased Eurofins DiscoverX KINOMEscan

[37] = target: T36, CDKL5 (Homo sapiens, UniProt O76039); conditions: read-out: Percent Control
T36 construct: purchased Eurofins DiscoverX KINOMEscan

[38] = target: T37, LRRK2 (Homo sapiens, UniProt Q5S007); conditions: read-out: Percent Control
T37 construct: purchased Eurofins DiscoverX KINOMEscan

[39] = target: T38, LZK (Homo sapiens, UniProt O43283); conditions: read-out: Percent Control
T38 construct: purchased Eurofins DiscoverX KINOMEscan

[40] = target: T39, PRKD2 (Homo sapiens, UniProt Q9BZL6); conditions: read-out: Percent Control
T39 construct: purchased Eurofins DiscoverX KINOMEscan

[41] = target: T40, SgK110 (Homo sapiens, UniProt P0C264); conditions: read-out: Percent Control
T40 construct: purchased Eurofins DiscoverX KINOMEscan

[42] = target: T41, TLK1 (Homo sapiens, UniProt Q9UKI8); conditions: read-out: Percent Control
T41 construct: purchased Eurofins DiscoverX KINOMEscan

[43] = target: T42, TNIK (Homo sapiens, UniProt Q9UKE5); conditions: read-out: Percent Control
T42 construct: purchased Eurofins DiscoverX KINOMEscan

[44] = target: T43, TRKC (Homo sapiens, UniProt Q16288); conditions: read-out: Percent Control
T43 construct: purchased Eurofins DiscoverX KINOMEscan

[45] = target: T44, WEE1 (Homo sapiens, UniProt P30291); conditions: read-out: Percent Control
T44 construct: purchased Eurofins DiscoverX KINOMEscan

T4 sequence (Q13464 whole entry): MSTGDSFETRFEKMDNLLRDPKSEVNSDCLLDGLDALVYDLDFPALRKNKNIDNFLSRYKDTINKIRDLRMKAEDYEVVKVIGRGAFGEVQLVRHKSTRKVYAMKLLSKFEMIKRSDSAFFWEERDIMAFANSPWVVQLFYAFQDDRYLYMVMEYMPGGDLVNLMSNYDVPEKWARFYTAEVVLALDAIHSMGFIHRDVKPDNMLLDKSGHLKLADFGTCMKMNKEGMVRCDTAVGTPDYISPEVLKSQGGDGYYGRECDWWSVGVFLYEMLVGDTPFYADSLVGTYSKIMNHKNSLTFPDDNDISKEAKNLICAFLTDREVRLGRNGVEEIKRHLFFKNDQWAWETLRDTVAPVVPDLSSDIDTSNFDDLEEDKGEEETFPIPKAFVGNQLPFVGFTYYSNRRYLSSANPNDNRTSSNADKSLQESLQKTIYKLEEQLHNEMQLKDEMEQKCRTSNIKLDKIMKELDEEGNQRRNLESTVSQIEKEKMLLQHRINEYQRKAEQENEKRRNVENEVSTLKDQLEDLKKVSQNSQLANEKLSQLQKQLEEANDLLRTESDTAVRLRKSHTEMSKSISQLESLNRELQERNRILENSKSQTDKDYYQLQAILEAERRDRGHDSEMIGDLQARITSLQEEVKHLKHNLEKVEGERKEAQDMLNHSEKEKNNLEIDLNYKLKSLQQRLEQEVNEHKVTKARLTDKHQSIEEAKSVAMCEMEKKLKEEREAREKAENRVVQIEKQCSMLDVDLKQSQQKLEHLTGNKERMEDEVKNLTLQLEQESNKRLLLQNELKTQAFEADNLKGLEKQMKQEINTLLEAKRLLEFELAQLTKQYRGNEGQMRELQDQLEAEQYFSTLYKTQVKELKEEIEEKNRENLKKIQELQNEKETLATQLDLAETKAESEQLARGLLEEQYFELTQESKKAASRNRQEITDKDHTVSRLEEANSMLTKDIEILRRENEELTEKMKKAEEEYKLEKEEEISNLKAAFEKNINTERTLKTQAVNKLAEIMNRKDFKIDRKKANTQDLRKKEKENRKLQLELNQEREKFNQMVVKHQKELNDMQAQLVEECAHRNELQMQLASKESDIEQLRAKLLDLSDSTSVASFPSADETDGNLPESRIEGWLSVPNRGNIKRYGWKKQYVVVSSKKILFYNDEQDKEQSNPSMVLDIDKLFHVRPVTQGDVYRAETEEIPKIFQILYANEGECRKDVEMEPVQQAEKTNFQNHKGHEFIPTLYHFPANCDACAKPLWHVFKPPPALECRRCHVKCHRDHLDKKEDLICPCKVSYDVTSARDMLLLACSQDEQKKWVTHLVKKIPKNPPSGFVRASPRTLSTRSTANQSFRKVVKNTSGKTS
T43 sequence (Q16288 32-839): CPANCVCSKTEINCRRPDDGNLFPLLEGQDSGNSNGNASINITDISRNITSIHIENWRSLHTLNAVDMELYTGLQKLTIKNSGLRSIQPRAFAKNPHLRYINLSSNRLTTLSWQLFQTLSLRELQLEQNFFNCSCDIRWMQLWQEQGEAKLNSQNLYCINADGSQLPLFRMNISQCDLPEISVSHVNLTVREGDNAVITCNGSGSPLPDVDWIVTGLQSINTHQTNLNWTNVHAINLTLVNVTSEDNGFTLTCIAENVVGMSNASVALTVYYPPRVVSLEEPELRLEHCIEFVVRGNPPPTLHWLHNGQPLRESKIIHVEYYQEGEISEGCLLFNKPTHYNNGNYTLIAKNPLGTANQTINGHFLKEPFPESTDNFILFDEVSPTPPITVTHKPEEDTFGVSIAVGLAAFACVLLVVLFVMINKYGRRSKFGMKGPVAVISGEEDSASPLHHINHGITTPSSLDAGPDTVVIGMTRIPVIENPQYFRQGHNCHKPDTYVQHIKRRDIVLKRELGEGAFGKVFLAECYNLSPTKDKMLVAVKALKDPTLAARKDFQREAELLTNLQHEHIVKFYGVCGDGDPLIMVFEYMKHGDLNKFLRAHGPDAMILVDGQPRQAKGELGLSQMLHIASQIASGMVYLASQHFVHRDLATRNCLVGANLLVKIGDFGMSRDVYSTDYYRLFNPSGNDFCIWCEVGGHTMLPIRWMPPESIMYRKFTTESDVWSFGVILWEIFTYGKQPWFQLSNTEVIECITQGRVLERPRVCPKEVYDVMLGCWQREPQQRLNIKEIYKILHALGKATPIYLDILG
T40 sequence (P0C264 whole entry): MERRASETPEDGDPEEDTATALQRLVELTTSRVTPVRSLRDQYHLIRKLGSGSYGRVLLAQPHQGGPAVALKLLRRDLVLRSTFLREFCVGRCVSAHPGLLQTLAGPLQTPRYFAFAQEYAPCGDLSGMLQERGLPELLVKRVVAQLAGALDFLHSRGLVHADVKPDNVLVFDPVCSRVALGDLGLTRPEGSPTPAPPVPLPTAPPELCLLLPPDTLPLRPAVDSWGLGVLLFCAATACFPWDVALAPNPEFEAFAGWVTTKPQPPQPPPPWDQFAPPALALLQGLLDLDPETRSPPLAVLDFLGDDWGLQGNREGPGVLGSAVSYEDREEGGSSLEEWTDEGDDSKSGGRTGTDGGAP
T26 sequence (Q9P1W9 whole entry): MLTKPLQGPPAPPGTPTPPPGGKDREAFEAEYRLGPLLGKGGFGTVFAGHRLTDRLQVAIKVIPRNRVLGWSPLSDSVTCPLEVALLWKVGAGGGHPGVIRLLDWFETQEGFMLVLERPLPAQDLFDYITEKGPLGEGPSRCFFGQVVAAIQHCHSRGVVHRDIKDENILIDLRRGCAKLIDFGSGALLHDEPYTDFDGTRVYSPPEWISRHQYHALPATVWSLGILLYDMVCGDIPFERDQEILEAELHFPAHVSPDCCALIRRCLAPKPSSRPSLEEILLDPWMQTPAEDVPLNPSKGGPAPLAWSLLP
T1 sequence (O14976 whole entry): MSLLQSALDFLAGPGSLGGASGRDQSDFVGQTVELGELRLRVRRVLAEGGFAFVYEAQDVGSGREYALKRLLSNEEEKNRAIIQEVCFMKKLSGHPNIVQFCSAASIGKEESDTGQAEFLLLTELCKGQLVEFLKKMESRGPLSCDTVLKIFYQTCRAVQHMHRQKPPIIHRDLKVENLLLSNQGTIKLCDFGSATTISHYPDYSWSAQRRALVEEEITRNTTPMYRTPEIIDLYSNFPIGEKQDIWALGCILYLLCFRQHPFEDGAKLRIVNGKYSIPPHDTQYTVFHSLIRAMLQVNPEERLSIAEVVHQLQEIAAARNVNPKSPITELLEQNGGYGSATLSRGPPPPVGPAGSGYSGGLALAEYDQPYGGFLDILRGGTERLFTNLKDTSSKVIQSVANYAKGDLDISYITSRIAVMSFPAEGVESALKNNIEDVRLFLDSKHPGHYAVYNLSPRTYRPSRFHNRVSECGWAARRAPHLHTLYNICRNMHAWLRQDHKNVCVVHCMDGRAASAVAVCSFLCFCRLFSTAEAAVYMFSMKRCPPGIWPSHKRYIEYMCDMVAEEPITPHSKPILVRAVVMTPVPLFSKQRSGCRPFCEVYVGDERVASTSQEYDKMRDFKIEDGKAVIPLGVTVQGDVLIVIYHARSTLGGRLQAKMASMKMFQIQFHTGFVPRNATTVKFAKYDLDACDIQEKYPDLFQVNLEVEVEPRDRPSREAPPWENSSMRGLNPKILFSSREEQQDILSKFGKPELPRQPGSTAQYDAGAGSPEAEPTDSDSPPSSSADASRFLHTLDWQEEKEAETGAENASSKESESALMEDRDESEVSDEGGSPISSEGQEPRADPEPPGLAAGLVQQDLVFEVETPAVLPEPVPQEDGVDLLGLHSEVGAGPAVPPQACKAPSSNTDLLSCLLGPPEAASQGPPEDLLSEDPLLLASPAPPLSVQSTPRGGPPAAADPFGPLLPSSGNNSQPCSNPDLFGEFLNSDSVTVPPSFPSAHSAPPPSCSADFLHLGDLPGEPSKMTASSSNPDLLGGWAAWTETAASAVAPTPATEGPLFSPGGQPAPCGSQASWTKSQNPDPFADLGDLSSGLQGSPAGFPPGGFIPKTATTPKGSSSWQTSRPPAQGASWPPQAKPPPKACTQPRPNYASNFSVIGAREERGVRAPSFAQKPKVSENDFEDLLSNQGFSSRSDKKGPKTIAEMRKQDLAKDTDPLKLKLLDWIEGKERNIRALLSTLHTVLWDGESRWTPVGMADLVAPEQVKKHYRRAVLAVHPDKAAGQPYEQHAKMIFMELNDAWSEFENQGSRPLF
T34 sequence (Q8NG66 whole entry): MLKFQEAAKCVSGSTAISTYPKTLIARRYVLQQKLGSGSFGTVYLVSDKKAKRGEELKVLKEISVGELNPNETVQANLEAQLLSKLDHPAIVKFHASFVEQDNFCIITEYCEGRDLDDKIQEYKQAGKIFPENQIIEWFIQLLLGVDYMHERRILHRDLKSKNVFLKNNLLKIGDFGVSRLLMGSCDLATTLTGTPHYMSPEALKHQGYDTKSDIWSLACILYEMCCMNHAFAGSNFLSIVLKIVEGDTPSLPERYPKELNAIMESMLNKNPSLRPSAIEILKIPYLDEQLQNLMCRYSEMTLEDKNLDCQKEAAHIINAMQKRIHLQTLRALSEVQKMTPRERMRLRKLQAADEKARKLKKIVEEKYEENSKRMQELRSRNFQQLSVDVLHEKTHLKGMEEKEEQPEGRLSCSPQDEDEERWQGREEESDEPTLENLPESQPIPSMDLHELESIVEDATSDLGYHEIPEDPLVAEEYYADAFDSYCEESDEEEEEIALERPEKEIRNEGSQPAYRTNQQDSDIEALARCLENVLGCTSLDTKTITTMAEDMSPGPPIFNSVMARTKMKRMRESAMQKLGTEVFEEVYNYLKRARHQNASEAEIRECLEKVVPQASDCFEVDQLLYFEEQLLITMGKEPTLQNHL

For `CC(C)NC(=O)COc1cccc(-c2nc(Nc3ccc4[nH]ncc4c3)c3ccccc3n2)c1` [KD025, 2-(3-(4-((1H-indazol-5-yl)amino)quinazolin-2-yl)phenoxy)-N-isopropylacetamide], the remaining binding at 10 µM [1] was 10%, the “Percent Control” value [2] was 31% and the remaining binding at 10 µM [3] was 32%. For the same compound, the remaining binding at 10 µM [4] was 45%, the “ROCK1 vs. ROCK2 in POC” value ([5]; 10 μM) was 900 fold and the remaining binding at 10 µM ([5]; ROCK1, read-out: Percent Control) was 45%. It also gave a remaining binding at 10 µM [6] of 48%, a remaining binding at 10 µM [7] of 57% and a remaining binding at 10 µM [8] of 58%. For the same compound, the remaining binding at 10 µM [9] was 59%, the remaining binding at 10 µM [10] was 60% and the remaining binding at 10 µM [11] was 60%. For the same compound, the remaining binding at 10 µM [12] was 61%, the remaining binding at 10 µM [13] was 64% and the remaining binding at 10 µM [14] was 66%. The remaining binding at 10 µM [15] was 68%, the remaining binding at 10 µM [16] was 69% and the remaining binding at 10 µM [17] was 71%. For the same compound, the remaining binding at 10 µM [18] was 72%, the remaining binding at 10 µM [19] was 72% and the remaining binding at 10 µM [20] was 76%. It also gave a remaining binding at 10 µM [21] of 78%, a remaining binding at 10 µM [22] of 80% and a remaining binding at 10 µM [23] of 82%. For the same compound, the remaining binding at 10 µM [24] was 82%, the remaining binding at 10 µM [25] was 83% and the remaining binding at 10 µM [26] was 85%. For the same compound, the remaining binding at 10 µM [27] was 85%, the remaining binding at 10 µM [28] was 88% and the remaining binding at 10 µM [29] was 90%. It also gave a remaining binding at 10 µM [30] of 92%, a remaining binding at 10 µM [31] of 92% and a remaining binding at 10 µM [32] of 93%. The remaining binding at 10 µM [33] was 94%, the remaining binding at 10 µM [34] was 95% and the remaining binding at 10 µM [35] was 99%. For the same compound, the remaining binding at 10 µM [36] was 100%, the remaining binding at 10 µM [37] was 100% and the remaining binding at 10 µM [38] was 100%. For the same compound, the remaining binding at 10 µM [39] was 100%, the remaining binding at 10 µM [40] was 100% and the remaining binding at 10 µM [41] was 100%. For the same compound, the remaining binding at 10 µM [42] was 100%, the remaining binding at 10 µM [43] was 100% and the remaining binding at 10 µM [44] was 100%. For the same compound, the remaining binding at 10 µM [45] was 100%.
